Each structure is given as a SMILES string.

The values below come from patent US20030143744A1, “Method for the production of cotton somatic embryos” (priority 2000, published 2003).

Format in all cases: cell-based, Cotton (Gossypium hirsutum L.)
Test [1] has as its system both Coker lines (312 and 315). The test is described as follows: Callus initiation, growth and morphology by growth regulators. Here is the method: (§1) A basal medium containing Murashige and Skoog ((1962) Physiol Plant 15: 473-497.) salts, Trolinder & Goodin ((1988a) Plant Cell Tiss Org Cult 12: 31-42.) vitamins and glucose (166.5 mM equivalent to 30 g.l^−1) was used throughout the experiments. For callus initiation, basal medium was supplemented with naphthalene acetic acid (NAA, 2.7, 5.4, 10.7 and 21.5 μM) and isopentenyladenine (iP, 1.3, 2.5 and 4.9 μM). In addition, the effects of thidiazuron (tdz), kinetin (kin) and iP, each at a concentration of 4.9 μM, were tested for their effect on callus morphology and development. Callus initiation was evaluated after 3-6 weeks. Media was used as liquid or solidified (geirite 1.6 g.l^−1 plus 7.9 mM MgCl2). Twenty to thirty epidermal strips were cultured per dish.
Epidermal strips were excised from the whole bract of Coker line 315 and cultured on medium containing NAA (2.7, 5.4, 10.7 and 21.5 μM) and iP (1.3, 2.5 and 4.9 μM). Two to four independent experiments were carried out and 1300 epidermal strips were used in these studies.
Callus initiation, growth and morphology from both Coker lines (312 and 315) were influenced by the growth regulators in the callus initiation medium. […] In addition, there were no statistical significant differences in callus induction frequency within the remaining range of treatments tested.

For test [2], the system named is epidermal strips of Coker line 312. In words: Callus initiation from epidermal strips of Coker line 312. The conditions noted are these: cytokinin at 4.9 μM, medium further supplemented with NAA (10.7 μM); basal region of bract. Here is the method:
Following disinfection, bracts were soaked in sterile distilled water, for at least 3 h, to facilitate peeling. Epidermal strips were carefully excised from the lower epidermis, using fine forceps under sterile conditions. The enzymatic treatment of epidermal strips was tested for the removal of all contaminating mesophyll and vascular tissues as follows: strips were immersed for 2-3.5 h, in a filter sterilised solution containing Linsmaier & Skoog salts (1965), Cellulysin (0.2% w/v), Hemicellulase (0.2% w/v), polyvinylpyrrolidone (PVP-40, 0.1% w/v) and pH adjusted to 5.5.
Epidermal fragments (3-10 mm size), with or without enzymatic treatment, were placed in Petri dishes (32 mm in diameter) containing 2 ml semi-solid medium, with the cuticle side either in contact with the medium or upwards.
as §1
The effect of shading of the culture dishes on callus initiation was also evaluated. One or two dishes containing a layer of culture medium (2 ml) were placed on the top of dishes containing the cultures. Dishes were incubated on full light (26.3 μmol. m^−2.s^−1) or under reduced light irradiance, respectively, under shade from 1 dish (21.0 μmol. m^−2.s^−1) or shading from two dishes (15.8 μmol. m^−2.s^−1).

The subject of test [3] is embryogenic callus / somatic embryos. The test is described as follows: Somatic embryo histodifferentiation on differentiation medium. Here is the method:
Following callus initiation, calluses were sub-cultured, every 4-5 weeks, to callus initiation medium or to basal medium without growth regulators, either solidified or liquid, agitated (under orbital shaking at 110 rpm) or to the surface of filter paper (Whatman™ n° 1) bridges, inserted into macrowell plates (34 mm in diameter, well), containing 3-4 ml of liquid medium to induce somatic embryogenesis. Liquid cultures were maintained by subculture at 2 week intervals. Primary calli containing embryogenic clumps were sub-cultured to somatic embryo differentiation media. A culture medium similar to embryogenesis callus induction medium was used, but modified to contain 10 mM glutamine (Price and Smith 1979 (Planta 145: 305-307.), Cousins et al. 1991 Aust. J. Plant Physiol. 18: 481-494.), 5.4 μM NAA, 2.5 μM iP and solidified with 0.2% gelrite. The effect of abscisic acid (ABA, 0.0, 0.19, 0.38, 1.9 μM) on somatic embryo histodifferentiation was tested.

On to `CC(C)=CCNc1ncnc2nc[nH]c12` [iP, isopentenyladenine], for which the “time to similar size of callus” value in test [1] (iP 1.2 μM) worked out at 8 weeks. The “time to macroscopic calluses” value in test [1] (iP 4.9 μM) is on record as 4-5 weeks. The callus induction in test [2] came out at 36.3±15.8%.
For `O=C(Nc1ccccc1)Nc1cnns1` [Tdz, thidiazuron], the callus induction in test [2] is on record as 31.3±4.5%.
As to `c1coc(CNc2ncnc3[nH]cnc23)c1` [Kin, kinetin], the callus induction in test [2] was found to be 8.6±0.7%.
For the molecule `CC1=CC(=O)CC(C)(C)[C@@]1(O)/C=C/C(C)=C\C(=O)O` [ABA, abscisic acid], the somatic embryo differentiation result was “less uniform” in test [3] (ABA 0.0 or 1.9 μM); “Synchronised embryo differentiation and improved somatic embryo uniformity” in test [3] (ABA 0.19-0.38 μM, after 3-4 weeks).
